The target of the experiment is T1, Human GO (Homo sapiens, UniProt Q9UJM8).
T1 construct: purchased Novus Biologicals NBP1-72412
T1 sequence (Q9UJM8 1-370): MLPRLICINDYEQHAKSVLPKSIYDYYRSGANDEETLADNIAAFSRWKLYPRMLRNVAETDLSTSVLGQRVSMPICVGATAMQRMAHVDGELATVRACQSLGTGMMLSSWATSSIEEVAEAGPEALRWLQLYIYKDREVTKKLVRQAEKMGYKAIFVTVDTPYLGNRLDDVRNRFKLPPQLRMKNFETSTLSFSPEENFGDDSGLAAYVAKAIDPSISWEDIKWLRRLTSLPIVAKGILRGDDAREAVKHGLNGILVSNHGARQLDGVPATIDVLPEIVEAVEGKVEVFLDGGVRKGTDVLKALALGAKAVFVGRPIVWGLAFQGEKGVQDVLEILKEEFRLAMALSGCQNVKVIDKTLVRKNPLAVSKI
The experiment can be described thus: GO enzymatic assay (coupled fluorescence/HRP assay, glycolate substrate). The format is biochemical. As to conditions: Table 2; read-out: Range (range of IC50 values calculated from the enzymatic assays). The essentials:
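Human GO incubated with glycolate substrate in 50 mM potassium phosphate, pH 7, with varying inhibitor concentrations. Activity read by coupled HRP fluorescence. IC50 taken from variable-slope sigmoidal dose-response fits of percent inhibition relative to DMSO control.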

These results are taken from US11384055B2 (BIOMARIN PHARMACEUTICAL INC., priority 2017, dated 2022).

On to `O=C(O)c1[nH]nnc1Sc1ccc(-c2ccc(N3CCCCC3)cc2)cc1` [Compound 169, 4-((4′-(piperidin-1-yl)-[1,1′-biphenyl]-4-yl)thio)-1H-1,2,3 triazole-5-carboxylic acid 2,2,2-trifluoroacetate], for which the IC50 was below 0.1 µM.

For the compound `O=C(O)c1[nH]nnc1Sc1ccc(-c2cccc(OCC3CC3)c2)cc1` [Compound 170, 4-((3′-(cyclopropylmethoxy)-[1,1′-biphenyl]-4-yl)thio)-1H-1,2,3-triazole-5-carboxylic acid 2,2,2-trifluoroacetate], the concentration for half-maximal inhibition (IC50) was below 0.1 µM.

Consider `O=C(O)c1[nH]nnc1CSc1ccc2cc(Cl)ccc2c1` [Compound 171, 4-(((6-chloronaphthalen-2-yl)thio)methyl)-1H-1,2,3-triazole-5-carboxylic acid 2,2,2-trifluoroacetate], for which the IC50 was below 0.1 µM.

Consider `O=C(O)c1[nH]nnc1SC1CCc2cc(F)c(F)cc2C1` (stereo not drawn) [Compound 172, 4-((6,7-difluoro-1,2,3,4-tetrahydronaphthalen-2-yl)thio)-1H-1,2,3-triazole-5-carboxylic acid], for which the half-inhibitory concentration (IC50) is below 0.1 µM.

`O=C(O)c1[nH]nnc1SC1Cc2cc(F)c(F)cc2C1` [Compound 173, 4-((5,6-difluoro-2,3-dihydro-1H-inden-2-yl)thio)-1H-1,2,3-triazole-5-carboxylic acid]: the half-maximal inhibitory concentration (IC50) is below 0.1 µM.

As to `O=C(O)c1[nH]nnc1SCc1ccc2cc(Cl)ccc2c1` [Compound 174, 4-(((6-chloronaphthalen-2-yl)methyl)thio)-1H-1,2,3-triazole-5-carboxylic acid 2,2,2-trifluoroacetate], the half-maximal inhibitory concentration (IC50) was below 0.1 µM.

Take `CN1CCCc2cc(-c3ccc(Sc4nn[nH]c4C(=O)O)cc3)ccc21` [Compound 175, 4-((4-(1-methyl-1,2,3,4-tetrahydroquinolin-6-yl)phenyl)thio)-1H-1,2,3-triazole-5-carboxylic acid 2,2,2-trifluoroacetate]: the IC50 is below 0.1 µM.

As to `O=C(O)c1[nH]nnc1SCc1ccc(Cl)c(Cl)c1` [Compound 176, 4-((3,4-dichlorobenzyl)thio)-1H-1,2,3-triazole-5-carboxylic acid], the IC50 was below 0.1 µM.

Regarding `O=C(O)c1[nH]nnc1SCc1ccc(-c2ccc(OC(F)(F)F)cc2)cc1` [Compound 177], the half-maximal inhibitory concentration (IC50) was below 0.1 µM.

Consider `O=C(O)c1[nH]nnc1CNc1ccc2cc(Cl)ccc2c1` [Compound 178, 4-(((6-chloronaphthalen-2-yl)amino)methyl)-1H-1,2,3-triazole-5-carboxylic acid 2,2,2-trifluoroacetate], for which the concentration for half-maximal inhibition (IC50) is below 0.1 µM.

`CN(Cc1nn[nH]c1C(=O)O)c1ccc(Cl)c(Cl)c1` [Compound 179, 4-(((3,4-dichlorophenyl)(methyl)amino)methyl)-1H-1,2,3-triazole-5-carboxylic acid 2,2,2-trifluoroacetate]: the 50% inhibitory concentration (IC50) is below 0.1 µM.

For `CN(Cc1nn[nH]c1C(=O)O)c1ccc2cc(Cl)ccc2c1` [Compound 180, 4-(((6-chloronaphthalen-2-yl)(methyl)amino)methyl)-1H-1,2,3-triazole-5-carboxylic acid 2,2,2-trifluoroacetate], the IC50 is below 0.1 µM.

For `O=C(O)c1[nH]nnc1Nc1ccc(-c2ccc(Cl)cc2)c(Cl)c1` [Compound 181, 4-((2,4′-dichloro-[1,1′-biphenyl]-4-yl)amino)-1H-1,2,3-triazole-5-carboxylic acid], the IC50 is below 0.1 µM.

Consider `O=C(O)c1[nH]nnc1NCc1ccc2cc(Cl)ccc2c1` [Compound 182, 4-(((6-chloronaphthalen-2-yl)methyl)amino)-1H-1,2,3-triazole-5-carboxylic acid], for which the IC50 is 0.1 to 1 µM.

For `O=C(O)c1[nH]nnc1Nc1ccc(-c2ccc(C(F)(F)F)cc2)cc1` [Compound 183, 4-((4′-(trifluoromethyl)-[1,1′-biphenyl]-4-yl)amino)-1H-1,2,3-triazole-5-carboxylic acid], the IC50 was below 0.1 µM.

As for `CCN(Cc1nn[nH]c1C(=O)O)c1ccc(Cl)c(Cl)c1` [Compound 185, 4-(((3,4-dichlorophenyl)(ethyl)amino)methyl)-1H-1,2,3-triazole-5-carboxylic acid], the half-maximal inhibitory concentration (IC50) was 0.1 to 1 µM.

Regarding `O=C(O)c1[nH]nnc1Nc1cnc2cc(Cl)ccc2c1` [Compound 186, 4-((7-chloroquinolin-3-yl)amino)-1H-1,2,3-triazole-5-carboxylic acid], the half-maximal inhibitory concentration (IC50) was 1 to 10 µM.

Regarding `CCN(Cc1nn[nH]c1C(=O)O)c1ccc2cc(Cl)ccc2c1` [Compound 187, 4-(((6-chloronaphthalen-2-yl)(ethyl)amino)methyl)-1H-1,2,3-triazole-5-carboxylic acid], the IC50 is 0.1 to 1 µM.

Turning to `O=C(O)c1[nH]nnc1CN1CCCc2cc(Cl)ccc21` [Compound 188, 4-((6-chloro-3,4-dihydroquinolin-1(211)-yl)methyl)-1H-1,2,3-triazole-5-carboxylic acid], the IC50 was 1 to 10 µM.

Consider `CCN(Cc1nn[nH]c1C(=O)O)c1ccc(-c2ccc(OC(F)(F)F)cc2)cc1` [Compound 189, 4-((ethyl(4′-(trifluoromethoxy)-[1,1′-biphenyl]-4-yl)amino)methyl)-1H-1,2,3-triazole-5-carboxylic acid 2,2,2-trifluoroacetate], for which the concentration for half-maximal inhibition (IC50) was 0.1 to 1 µM.

Take `O=C(O)c1[nH]nnc1NC1Cc2cc(Cl)c(Cl)cc2C1` [Compound 190, 4-((5,6-dichloro-2,3-dihydro-1H-inden-2-yl)amino)-1H-1,2,3-triazole-5-carboxylic acid 2,2,2-trifluoroacetate]: the IC50 is 0.1 to 1 µM.

On to `O=C(O)c1[nH]nnc1CN(Cc1ccccc1)c1ccc(C2CCCCC2)cc1` [Compound 194, 4-((benzyl(4-cyclohexylphenyl)amino)methyl)-1H-1,2,3-triazole-5-carboxylic acid], for which the half-inhibitory concentration (IC50) was 1 to 10 µM.

For `O=C(O)c1[nH]nnc1CN(Cc1ccc(OC(F)(F)F)cc1)c1ccc(Cl)cc1` [Compound 195, 4-(((4-chlorophenyl)(4-(trifluoromethoxy)benzyl)amino)methyl)-1H-1,2,3-triazole-5-carboxylic acid], the IC50 was 0.1 to 1 µM.

As for `O=C(O)c1[nH]nnc1CN(Cc1ccccc1)c1ccc(-c2ccc(OC(F)(F)F)cc2)cc1` [Compound 196, 4-((benzyl(4′-(trifluoromethoxy)-[1,1′-biphenyl]-4-yl)amino)methyl)-1H-1,2,3-triazole-5-carboxylic acid 2,2,2-trifluoroacetate], the half-inhibitory concentration (IC50) was 0.1 to 1 µM.

Regarding `O=C(O)c1[nH]nnc1C(F)(F)c1ccc(-c2ccc(Cl)cc2)c(Cl)c1` [Compound 197, 4-((2,4′-dichloro-[1,1′-biphenyl]-4-yl)difluoromethyl)-1H-1,2,3-triazole-5-carboxylic acid 2,2,2-trifluoroacetate], the half-inhibitory concentration (IC50) is below 0.1 µM.

Regarding `O=C(O)c1[nH]nnc1C(F)(F)c1ccc(-c2ccc(OC(F)(F)F)cc2)cc1` [Compound 198, 4-(difluoro(4′-(trifluoromethoxy)-[1,1′-biphenyl]-4-yl)methyl)-1H-1,2,3-triazole-5-carboxylic acid 2,2,2-trifluoroacetate], the IC50 is below 0.1 µM.

Consider `O=C(O)c1[nH]nnc1C(F)(F)c1ccc2cc(Cl)ccc2c1` [Compound 199, 4-((6-chloronaphthalen-2-yl)difluoromethyl)-1H-1,2,3-triazole-5-carboxylic acid], for which the half-inhibitory concentration (IC50) is below 0.1 µM.

Consider `O=C(O)c1[nH]nnc1C(F)(F)c1ccc(-c2ccc(Cl)cc2)cc1` [Compound 200, 4-((4′-chloro-[1,1′-biphenyl]-4-yl)difluoromethyl)-1H-1,2,3-triazole-5-carboxylic acid 2,2,2-trifluoroacetate], for which the IC50 is below 0.1 µM.

For `O=C(O)c1[nH]nnc1C(F)(F)c1ccc(-c2ccc(Cl)c(Cl)c2)cc1` [Compound 201, 4-((3′,4′-dichloro-[1,1′-biphenyl]-4-yl)difluoromethyl)-1H-1,2,3-triazole-5-carboxylic acid 2,2,2-trifluoroacetate], the concentration for half-maximal inhibition (IC50) is below 0.1 µM.

In the case of `O=C(O)c1[nH]nnc1-c1ccc(-c2ccc(Cl)cc2)c(OC(F)(F)F)c1` [Compound 203, 4-(4′-chloro-2-(trifluoromethoxy)-[1,1′-biphenyl]-4-yl)-1H-1,2,3-triazole-5-carboxylic acid], the concentration for half-maximal inhibition (IC50) was below 0.1 µM.

With `CC(C)C(=O)OCOC(=O)c1[nH]nnc1-c1ccc2cc(Cl)ccc2n1` [Compound 204, (isobutyryloxy)methyl 4-(6-chloroquinolin-2-yl)-1H-1,2,3-triazole-5-carboxylate], the concentration for half-maximal inhibition (IC50) is 1 to 10 µM.

Regarding `CC(C)N1CCCc2cc(-c3nn[nH]c3C(=O)O)ccc21` [Compound 206, 4-(1-isopropyl-1,2,3,4-tetrahydroquinolin-6-yl)-1H-1,2,3-triazole-5-carboxylic acid 2,2,2-trifluoroacetate], the half-inhibitory concentration (IC50) was 1 to 10 µM.

Consider `O=C(O)c1[nH]nnc1-c1cc(Cl)c(Cl)cn1` [Compound 207, 4-(4,5-dichloropyridin-2-yl)-1H-1,2,3-triazole-5-carboxylic acid], for which the IC50 is 0.1 to 1 µM.

In the case of `O=C(O)c1[nH]nnc1-c1ccc(Cl)cn1` [Compound 208, 4-(5-chloropyridin-2-yl)-1H-1,2,3-triazole-5-carboxylic acid 2,2,2-trifluoroacetate], the IC50 is 0.1 to 1 µM.

In the case of `CC(=O)NCCOc1ccc(-c2nn[nH]c2C(=O)O)cc1` [Compound 209, 4-(4-(2-acetamidoethoxy)phenyl)-1H-1,2,3-triazole-5-carboxylic acid], the concentration for half-maximal inhibition (IC50) was 1 to 10 µM.

On to `O=C(O)c1[nH]nnc1-c1cc2ccc(F)cc2cn1` [Compound 210, 4-(7-fluoroisoquinolin-3-yl)-1H-1,2,3-triazole-5-carboxylic acid 2,2,2-trifluoroacetate], for which the IC50 is 0.1 to 1 µM.
